Reference: US3956338A, “4,6-Dibromo-5-hydroxy-2-pyridine nitrile compounds and method of preparation” (The Dow Chemical Company, priority 1975, dated 1976)

Columns and labels:
[1] = test system: two-spotted spider mites; assay: Standard screening test, control of two-spotted spider mites; type: in vivo; conditions: 400 parts per million
[2] = test system: weeds; assay: Post- and pre-emergent herbicide evaluation, weeds overall; type: in vivo; conditions: Examples 2(A) and 2(B)
Description: (§1) Pots are filled with a sandy soil, and plants of any species considered appropriate (such as pigweed, field bindweed, velvet leaf, cotton, barnyard grass, foxtail, wild oat, and crabgrass) are grown to an average height of 2 to 4 inches. Plants are then sprayed to run-off with an aqueous solution or dispersion containing the test chemical at the desired concentration. The plants are maintained in the greenhouse and are sub-irrigated as necessary. Final readings are made 2 weeks after treatment. Readings represent the percent kill or control of growth on the treated plants when compared to untreated plants, with 0 = no visible effects and 100 = all plants dead. Compounds found active are subsequently tested over a range of rates which are less than the initial rate. […]
(§2) Pots are filled to within 1 inch of the top with a medium-textured soil and seeds of any species considered appropriate (such as pigweed, field bindweed, velvet leaf, cotton, barnyard grass, foxtail, wild oat and crabgrass) are sown in their appropriate area. […] Final readings are made about 2 weeks after treatment, the exact time depending upon the rate of plant growth. Readings are based on the germination and the growth of treated plants compared with that of untreated plants. Readings of 0% = no visible effects and 100% = all plants dead. […]

[3] = test system: crop plants; assay: Post- and pre-emergent herbicide evaluation, crop plants overall; type: in vivo; conditions: at concentrations effective for weed control
Description: as §1, §2

[4] = test system: Staphylococcus aureus; assay: Standard screening test, growth inhibition of microorganism; type: cell-based; conditions: 500 ppm
[5] = test system: Soybean; assay: Pre-emergent herbicide evaluation (Table II); type: in vivo; conditions: 4 Lbs/Acre, about 2 weeks after treatment
Description: (§3) Pots are filled to within 1 inch of the top with a medium-textured soil and seeds of any species considered appropriate (such as pigweed, field bindweed, velvet leaf, cotton, barnyard grass, foxtail, wild oat and crabgrass) are sown in their appropriate area. The seeds are then covered with a 1/2 inch layer of a sandy soil and test chemicals formulated at the desired concentration are drenched onto the soil surface in sufficient volume to wet the top 11/2 to 2 inches of soil. The pots are maintained in the greenhouse and are top-watered as necessary. Final readings are made about 2 weeks after treatment, the exact time depending upon the rate of plant growth. Readings are based on the germination and the growth of treated plants compared with that of untreated plants. Readings of 0% = no visible effects and 100% = all plants dead.
(§4) Compounds found active are subsequently tested over a range of rates which are less than the initial rate. The procedure is the same as described above with the exceptions that the seeds of appropriate species (such as soybean, corn, wheat, ragweed, Johnson grass, etc.) are covered with the same medium-textured soil used to fill the pot, and the chemicals are sprayed onto the soil surface at the desired rate in sufficient volume to cover and wet the soil surface. The pots are maintained, top-watered, and graded as described above.

[6] = test system: Crabgrass; assay: Pre-emergent herbicide evaluation (Table II); type: in vivo; conditions: 10 Lbs/Acre, about 2 weeks after treatment
Description: as §3, §4

[7] = test system: Bindweed; assay: Pre-emergent herbicide evaluation (Table II); type: in vivo; conditions: 10 Lbs/Acre, about 2 weeks after treatment
Description: as §3, §4

[8] = test system: Wild Oats; assay: Pre-emergent herbicide evaluation (Table II); type: in vivo; conditions: about 2 weeks after treatment
Description: as §3, §4

[9] = test system: Cotton; assay: Pre-emergent herbicide evaluation (Table II); type: in vivo; conditions: about 2 weeks after treatment
Description: as §3, §4

[10] = test system: Cultured Rice; assay: Pre-emergent herbicide evaluation (Table II); type: in vivo; conditions: about 2 weeks after treatment
Description: as §3, §4

[11] = test system: Yellow Foxtail; assay: Pre-emergent herbicide evaluation (Table II); type: in vivo; conditions: 10 Lbs/Acre, about 2 weeks after treatment
Description: as §3, §4

[12] = test system: Morning Glory; assay: Pre-emergent herbicide evaluation (Table II); type: in vivo; conditions: 4 Lbs/Acre, about 2 weeks after treatment
Description: as §3, §4

[13] = test system: Beans; assay: Pre-emergent herbicide evaluation (Table II); type: in vivo; conditions: 10 Lbs/Acre, about 2 weeks after treatment
Description: as §3, §4

[14] = test system: Sorghum/Milo; assay: Pre-emergent herbicide evaluation (Table II); type: in vivo; conditions: about 2 weeks after treatment
Description: as §3, §4

[15] = test system: White Winter Wheat; assay: Pre-emergent herbicide evaluation (Table II); type: in vivo; conditions: 4 Lbs/Acre, about 2 weeks after treatment
Description: as §3, §4

[16] = test system: Rape; assay: Pre-emergent herbicide evaluation (Table II); type: in vivo; conditions: 4 Lbs/Acre, about 2 weeks after treatment
Description: as §3, §4

[17] = test system: Corn; assay: Pre-emergent herbicide evaluation (Table II); type: in vivo; conditions: 4 Lbs/Acre, about 2 weeks after treatment
Description: as §3, §4

[18] = test system: German Millet; assay: Pre-emergent herbicide evaluation (Table II); type: in vivo; conditions: 2 Lbs/Acre, about 2 weeks after treatment
Description: as §3, §4

[19] = test system: Velvet Leaf; assay: Pre-emergent herbicide evaluation (Table II); type: in vivo; conditions: 10 Lbs/Acre, about 2 weeks after treatment
Description: as §3, §4

[20] = test system: Barnyard Grass; assay: Pre-emergent herbicide evaluation (Table II); type: in vivo; conditions: 10 Lbs/Acre, about 2 weeks after treatment
Description: as §3, §4

[21] = test system: Johnson Grass; assay: Pre-emergent herbicide evaluation (Table II); type: in vivo; conditions: 4 Lbs/Acre, about 2 weeks after treatment
Description: as §3, §4

[22] = test system: Pigweeds; assay: Pre-emergent herbicide evaluation (Table II); type: in vivo; conditions: 2 Lbs/Acre, about 2 weeks after treatment
Description: as §3, §4

[23] = test system: Crabgrass; assay: Post-emergent herbicide evaluation (Table I); type: in vivo; conditions: 4000 ppm, 2 weeks after treatment
Description: (§5) Pots are filled with a sandy soil, and plants of any species considered appropriate (such as pigweed, field bindweed, velvet leaf, cotton, barnyard grass, foxtail, wild oat, and crabgrass) are grown to an average height of 2 to 4 inches. Plants are then sprayed to run-off with an aqueous solution or dispersion containing the test chemical at the desired concentration. The plants are maintained in the greenhouse and are sub-irrigated as necessary. Final readings are made 2 weeks after treatment. Readings represent the percent kill or control of growth on the treated plants when compared to untreated plants, with 0 = no visible effects and 100 = all plants dead. Compounds found active are subsequently tested over a range of rates which are less than the initial rate. The procedure is the same as described above except that additional species (such as soybean, corn, wheat, ragweed, Johnson grass, etc.) are used. Additionally, test chemicals may be applied to the soil surface by drenching or as a solid to preclude contact with foliage. If foliage is sprayed, the pots are subsequently maintained by sub-irrigation; if chemical application is made to the soil, the pots are top-watered.

[24] = test system: Wild Oats; assay: Post-emergent herbicide evaluation (Table I); type: in vivo; conditions: 4000 ppm, 2 weeks after treatment
Description: as §5

[25] = test system: Cotton; assay: Post-emergent herbicide evaluation (Table I); type: in vivo; conditions: 4000 ppm, 2 weeks after treatment
Description: as §5

[26] = test system: Cultured Rice; assay: Post-emergent herbicide evaluation (Table I); type: in vivo; conditions: 4000 ppm, 2 weeks after treatment
Description: as §5

[27] = test system: Yellow Foxtail; assay: Post-emergent herbicide evaluation (Table I); type: in vivo; conditions: 4000 ppm, 2 weeks after treatment
Description: as §5

[28] = test system: Morning Glory; assay: Post-emergent herbicide evaluation (Table I); type: in vivo; conditions: 2000 ppm, 2 weeks after treatment
Description: as §5

[29] = test system: Beans; assay: Post-emergent herbicide evaluation (Table I); type: in vivo; conditions: 4000 ppm, 2 weeks after treatment
Description: as §5

[30] = test system: Sorghum/Milo; assay: Post-emergent herbicide evaluation (Table I); type: in vivo; conditions: 4000 ppm, 2 weeks after treatment
Description: as §5

[31] = test system: White Winter Wheat; assay: Post-emergent herbicide evaluation (Table I); type: in vivo; conditions: 2000 ppm, 2 weeks after treatment
Description: as §5

[32] = test system: Rape; assay: Post-emergent herbicide evaluation (Table I); type: in vivo; conditions: 1000 ppm, 2 weeks after treatment
Description: as §5

[33] = test system: Corn; assay: Post-emergent herbicide evaluation (Table I); type: in vivo; conditions: 4000 ppm, 2 weeks after treatment
Description: as §5

[34] = test system: Soybeans; assay: Post-emergent herbicide evaluation (Table I); type: in vivo; conditions: 4000 ppm, 2 weeks after treatment
Description: as §5

[35] = test system: German Millet; assay: Post-emergent herbicide evaluation (Table I); type: in vivo; conditions: 4000 ppm, 2 weeks after treatment
Description: as §5

[36] = test system: Velvet Leaf; assay: Post-emergent herbicide evaluation (Table I); type: in vivo; conditions: 2 weeks after treatment
Description: as §5

[37] = test system: Barnyard Grass; assay: Post-emergent herbicide evaluation (Table I); type: in vivo; conditions: 4000 ppm, 2 weeks after treatment
Description: as §5

[38] = test system: Pigweeds; assay: Post-emergent herbicide evaluation (Table I); type: in vivo; conditions: 1000 ppm, 2 weeks after treatment
Description: as §5

[39] = test system: plants; assay: Comparison with BROMINIL as post-emergent herbicide, overall; type: in vivo; conditions: Example 2(C)
Description: (§6) All plants were grown in a greenhouse and sprayed with the test solution when they attained 1 to 2 inches in height. The test solutions were made up in water, using a 0.2% Tween 20 surfactant (polyoxyethylene derivative of a fatty acid partial ester of sorbitol) and were applied in a total spray volume equivalent to 300 gallons per acre.

[40] = test system: Wheat; assay: Comparison with BROMINIL as post-emergent herbicide; type: in vivo; conditions: Triticum aestivum, post-emergence; post-emergent spray, 0.2% Tween 20, 300 gallons per acre; read-out: Concentration: minimum required for injury of wheat
Description: as §6

[41] = test system: Bindweed; assay: as above; type: in vivo; conditions: post-emergence; post-emergent spray, 0.2% Tween 20, 300 gallons per acre; read-out: Concentration Required for adequate control
Description: as §6

[42] = test system: Wild Oats; assay: as above; type: in vivo; conditions: for minimal effective concentration: Avena fatua, post-emergence, post-emergent spray, 0.2% Tween 20, 300 gallons per acre, read-out: Concentration Required for adequate control
Description: as §6

[43] = test system: Morning Glory; assay: as above; type: in vivo; conditions: Ipomoea, post-emergence; post-emergent spray, 0.2% Tween 20, 300 gallons per acre; read-out: Concentration Required for adequate control
Description: as §6

[44] = test system: Wild Mustard; assay: as above; type: in vivo; conditions: Brassica, post-emergence; post-emergent spray, 0.2% Tween 20, 300 gallons per acre; read-out: Concentration Required for adequate control
Description: as §6

[45] = test system: Buckwheat; assay: as above; type: in vivo; conditions: post-emergence; post-emergent spray, 0.2% Tween 20, 300 gallons per acre; read-out: Concentration Required for adequate control
Description: as §6

[46] = Solubility; type: physicochemical

N#Cc1cc(Br)c(O)c(Br)n1 [4,6-dibromo-5-hydroxy-2-pyridine nitrile]
control of two-spotted spider mites [1]: 100% | herbicidal activity against weeds [2]: moderately active herbicide against weeds | activity against most crop plants [3]: low or nil activity against most crop plants | growth inhibition of Staphylococcus aureus [4]: inhibited growth | % Control [5]: 0% | % Control [6]: 50% | % Control [7]: 25% | % Control ([8]; 4 Lbs/Acre): 70% | % Control ([8]; 10 Lbs/Acre): 85% | % Control ([9]; 4 Lbs/Acre): 0% | % Control ([9]; 10 Lbs/Acre): 100% | % Control ([10]; 2 Lbs/Acre): 0% | % Control ([10]; 4 Lbs/Acre): 15% | % Control [11]: 80% | % Control [12]: 15% | % Control [13]: 60% | % Control ([14]; 2 Lbs/Acre): 0% | % Control ([14]; 4 Lbs/Acre): 15% | % Control [15]: 0% | % Control [16]: 25% | % Control [17]: 20% | % Control [18]: 40% | % Control [19]: 40% | % Control [20]: 40% | % Control [21]: 0% | % Control [22]: 100% | Percent Control [23]: 100% | Percent Control [24]: 65% | Percent Control [25]: 100% | Percent Control [26]: 0% | Percent Control [27]: 70% | Percent Control [28]: 100% | Percent Control [29]: 70% | Percent Control [30]: 0% | Percent Control [31]: 0% | Percent Control [32]: 100% | Percent Control [33]: 0% | Percent Control [34]: 0% | Percent Control [35]: 85% | Percent Control ([36]; 1000 ppm): 85% | Percent Control ([36]; 2000 ppm): 100% | Percent Control [37]: 75% | Percent Control [38]: 100% | general activity relative to BROMINIL [39]: generally less active than BROMINIL | minimal effective concentration [40]: 2000 µg/mL | minimal effective concentration [41]: 4000 µg/mL | minimal effective concentration [42]: 500 µg/mL | times more active than BROMINIL against wild oats ([42]; post-emergent, relative to BROMINIL): 8 times | minimal effective concentration [43]: 1000 µg/mL | minimal effective concentration [44]: 62 µg/mL | minimal effective concentration [45]: 250 µg/mL | solubility in the common organic solvents ([46]; common organic solvents): soluble in the common organic solvents | solubility in water ([46]; water): essentially insoluble in water

N#Cc1cc(Br)c(O)c(Br)c1 [BROMINIL, 3,5-dibromo-4-hydroxy benzonitrile]
minimal effective concentration [40]: 4000 µg/mL | minimal effective concentration [41]: 500 µg/mL | minimal effective concentration [42]: > 4000 µg/mL | minimal effective concentration [43]: 16 µg/mL | minimal effective concentration [44]: 16 µg/mL | minimal effective concentration [45]: 16 µg/mL
